Values joined by “and” are separate entries in the source; they are usually repeats but may differ in a detail not shown here. Equal values may be shown once. Read-outs that look alike come from different tables or passages of the source.
Legend:
[1] = Example 5: expected Compound I free drug 24 h AUC according to dosage regimen, by individual subject (Table B); design: species or system human; conditions: for Expected Compound I free drug 24 h AUC: individual subjects
Text: Table B provides a summary of the analysis of different Compound I dosing regimens by individual subjects enrolled the study.

[2] = Example 1: pharmacokinetics of Compound I, single (SD) and multiple (MD, q8h 7 days) ascending doses, 3-hour IV infusion, healthy adult subjects; format: in vivo, human; conditions: for CL renal / AUC(0-t) / Cmax / Tmax / half-life / AUC(0-inf) / dose excreted: human, intravenous; for CL renal: plasma and urine; for AUC(0-t) / Cmax / Tmax / half-life / AUC(0-inf): plasma; for dose excreted: urine
Description: 56 healthy subjects were enrolled into one of 7 cohorts of 8 subjects each in the single ascending dose phase (250 mg, 500 mg, 750 mg, 1000 mg, 1250 mg, 1500 mg and 2000 mg). Thirty-two additional subjects were then enrolled into one of 4 cohorts in the multiple-dose phase (250 mg, 1000 mg, 1500 mg, and 2000 mg, given q8 h for 7 days). […] All infusions were administered over 3 hours. Plasma and urine samples were obtained after single or multiple doses and assayed for Compound I content using a validated HPLC/MS method.

[3] = 2 g q8h, Normal creatinine clearance

Expected Compound I free drug 24 h AUC, Mean [1, 3]: 358 µg·h/mL | Expected Compound I free drug 24 h AUC, Range [1, 3]: 284 to 470 µg·h/mL | CLNon-R ([2]; 250 mg multiple dose): 2.49 L/h | CLNon-R ([2]; 250 mg single dose): 2.85 L/h | CLNon-R ([2]; 500 mg single dose): 2.55 L/h | CLNon-R ([2]; 750 mg single dose): 1.72 L/h | CLNon-R ([2]; 1000 mg multiple dose): 2.31 L/h | CLNon-R ([2]; 1000 mg single dose): 0.97 L/h | CLNon-R ([2]; 1250 mg single dose): 1.33 L/h | CLNon-R ([2]; 1500 mg multiple dose): 1.68 L/h | CLNon-R ([2]; 1500 mg single dose): 1.42 L/h | CLNon-R ([2]; 2000 mg multiple dose): 1.15 L/h | CLNon-R ([2]; 2000 mg single dose): -1.07 L/h | exposure (Cmax and AUC) versus dose ([2]; following single and multiple doses): increased in a dose-proportional manner | CL renal ([2]; 250 mg, 250 mg multiple dose): 212 mL/min | CL renal ([2]; 250 mg, 250 mg single dose): 212 mL/min | CL renal ([2]; 500 mg, 500 mg single dose): 197 mL/min | CL renal ([2]; 750 mg, 750 mg single dose): 217 mL/min | CL renal ([2]; 1000 mg, 1000 mg multiple dose): 195 mL/min | CL renal ([2]; 1000 mg, 1000 mg single dose): 202 mL/min | CL renal ([2]; 1250 mg, 1250 mg single dose): 192 mL/min | CL renal ([2]; 1500 mg, 1500 mg multiple dose): 187 mL/min | CL renal ([2]; 1500 mg, 1500 mg single dose): 197 mL/min | CL renal ([2]; 2000 mg, 2000 mg multiple dose): 213 mL/min | CL renal ([2]; 2000 mg, 2000 mg single dose): 252 mL/min | AUC(0-t) ([2]; 250 mg, 250 mg multiple dose): 16.3 µg·h/mL | Cmax ([2]; 250 mg, 250 mg multiple dose): 4810 ng/mL | Tmax ([2]; 250 mg, 250 mg multiple dose): 2.25 h | half-life ([2]; 250 mg, 250 mg multiple dose, read-out: T1/2 (converted)): 1.17 h | AUC(0-t) ([2]; 250 mg, 250 mg single dose): 16.2 µg·h/mL | Cmax ([2]; 250 mg, 250 mg single dose): 5030 ng/mL | Tmax ([2]; 250 mg, 250 mg single dose): 3.02 h | half-life ([2]; 250 mg, 250 mg single dose, read-out: T1/2 (converted)): 1.17 h | AUC(0-t) ([2]; 500 mg, 500 mg single dose): 34.5 µg·h/mL | Cmax ([2]; 500 mg, 500 mg single dose): 9970 ng/mL | Tmax ([2]; 500 mg, 500 mg single dose): 3 h | half-life ([2]; 500 mg, 500 mg single dose, read-out: T1/2 (converted)): 1.35 h | AUC(0-t) ([2]; 750 mg, 750 mg single dose): 50.6 µg·h/mL | Cmax ([2]; 750 mg, 750 mg single dose): 15300 ng/mL | Tmax ([2]; 750 mg, 750 mg single dose): 3 h | half-life ([2]; 750 mg, 750 mg single dose, read-out: T1/2 (converted)): 1.24 h | AUC(0-t) ([2]; 1000 mg, 1000 mg multiple dose): 74.6 µg·h/mL | Cmax ([2]; 1000 mg, 1000 mg multiple dose): 21300 ng/mL | Tmax ([2]; 1000 mg, 1000 mg multiple dose): 3 h | half-life ([2]; 1000 mg, 1000 mg multiple dose, read-out: T1/2 (converted)): 1.43 h | AUC(0-t) ([2]; 1000 mg, 1000 mg single dose): 76.7 µg·h/mL | Cmax ([2]; 1000 mg, 1000 mg single dose): 21800 ng/mL | Tmax ([2]; 1000 mg, 1000 mg single dose): 3.01 h | half-life ([2]; 1000 mg, 1000 mg single dose, read-out: T1/2 (converted)): 1.41 h | AUC(0-t) ([2]; 1250 mg, 1250 mg single dose): 97.2 µg·h/mL | Cmax ([2]; 1250 mg, 1250 mg single dose): 27800 ng/mL | Tmax ([2]; 1250 mg, 1250 mg single dose): 3 h | half-life ([2]; 1250 mg, 1250 mg single dose, read-out: T1/2 (converted)): 1.32 h | AUC(0-t) ([2]; 1500 mg, 1500 mg multiple dose): 118 µg·h/mL | Cmax ([2]; 1500 mg, 1500 mg multiple dose): 33400 ng/mL | Tmax ([2]; 1500 mg, 1500 mg multiple dose): 3 h | half-life ([2]; 1500 mg, 1500 mg multiple dose, read-out: T1/2 (converted)): 1.65 h | AUC(0-t) ([2]; 1500 mg, 1500 mg single dose): 110 µg·h/mL | Cmax ([2]; 1500 mg, 1500 mg single dose): 32900 ng/mL | Tmax ([2]; 1500 mg, 1500 mg single dose): 3.01 h | half-life ([2]; 1500 mg, 1500 mg single dose, read-out: T1/2 (converted)): 1.4 h | AUC(0-t) ([2]; 2000 mg, 2000 mg multiple dose): 145 µg·h/mL | Cmax ([2]; 2000 mg, 2000 mg multiple dose): 40900 ng/mL | Tmax ([2]; 2000 mg, 2000 mg multiple dose): 2.25 h | half-life ([2]; 2000 mg, 2000 mg multiple dose, read-out: T1/2 (converted)): 1.66 h | AUC(0-t) ([2]; 2000 mg, 2000 mg single dose): 140 µg·h/mL | Cmax ([2]; 2000 mg, 2000 mg single dose): 41600 ng/mL | Tmax ([2]; 2000 mg, 2000 mg single dose): 3.02 h | half-life ([2]; 2000 mg, 2000 mg single dose, read-out: T1/2 (converted)): 1.51 h | half-life ([2]; observed, single and multiple doses, read-out: terminal half-life): < 2 h | AUC(0-inf) ([2]; 250 mg single dose): 16.6 µg·h/mL | AUC(0-inf) ([2]; 500 mg single dose): 35.6 µg·h/mL | AUC(0-inf) ([2]; 750 mg single dose): 51.8 µg·h/mL | AUC(0-inf) ([2]; 1000 mg single dose): 79.3 µg·h/mL | AUC(0-inf) ([2]; 1250 mg single dose): 100 µg·h/mL | AUC(0-inf) ([2]; 1500 mg single dose): 114 µg·h/mL | AUC(0-inf) ([2]; 2000 mg single dose): 144 µg·h/mL | dose excreted ([2]; 250 mg, 250 mg multiple dose, read-out: Urinary Recovery): 79.9% | dose excreted ([2]; 250 mg, 250 mg single dose, read-out: Urinary Recovery): 81.3% | dose excreted ([2]; 500 mg, 500 mg single dose, read-out: Urinary Recovery): 80.3% | dose excreted ([2]; 750 mg, 750 mg single dose, read-out: Urinary Recovery): 86.4% | dose excreted ([2]; 1000 mg, 1000 mg multiple dose, read-out: Urinary Recovery): 82.8% | dose excreted ([2]; 1000 mg, 1000 mg single dose, read-out: Urinary Recovery): 89.9% | dose excreted ([2]; 1250 mg, 1250 mg single dose, read-out: Urinary Recovery): 86.9% | dose excreted ([2]; 1500 mg, 1500 mg multiple dose, read-out: Urinary Recovery): 86.8% | dose excreted ([2]; 1500 mg, 1500 mg single dose, read-out: Urinary Recovery): 86.6% | dose excreted ([2]; 2000 mg, 2000 mg multiple dose, read-out: Urinary Recovery): 91.6% | dose excreted ([2]; 2000 mg, 2000 mg single dose, read-out: Urinary Recovery): 105% | dose excreted ([2]; over 48 hours across all dose groups, read-out: Urinary recovery): ≥ 80% | accumulation with multiple doses ([2]; q8h for 7 days): no evidence of accumulation
Compound: O=C(O)C[C@@H]1CC[C@H](NC(=O)Cc2cccs2)B(O)O1 [Compound I]
Expected Compound I free drug 24 h AUC ([1]; 500 mg q12h, 10-19 ml/min group): 505.1 µg·h/mL and 427.3 µg·h/mL and 493.6 µg·h/mL and 790.7 µg·h/mL and 830.3 µg·h/mL and 719.6 µg·h/mL | Expected Compound I free drug 24 h AUC ([1]; 500 mg q12h, 30-49 ml/min group): 119.3 µg·h/mL and 129.1 µg·h/mL and 115.2 µg·h/mL and 228.1 µg·h/mL and 251.1 µg·h/mL and 310.6 µg·h/mL | Expected Compound I free drug 24 h AUC ([1]; 500 mg q12h, >50 mL/min group): 70.0 µg·h/mL and 62.7 µg·h/mL and 69.2 µg·h/mL and 88.4 µg·h/mL and 70.7 µg·h/mL and 68.1 µg·h/mL and 108.4 µg·h/mL and 108.0 µg·h/mL | Expected Compound I free drug 24 h AUC ([1]; 500 mg q24h, 10-19 ml/min group): 252.5 µg·h/mL and 213.7 µg·h/mL and 246.8 µg·h/mL and 395.4 µg·h/mL and 415.1 µg·h/mL and 359.8 µg·h/mL | Expected Compound I free drug 24 h AUC ([1]; 500 mg q24h, 30-49 ml/min group): 59.6 µg·h/mL and 64.5 µg·h/mL and 57.6 µg·h/mL and 114.0 µg·h/mL and 125.5 µg·h/mL and 155.3 µg·h/mL | Expected Compound I free drug 24 h AUC ([1]; 500 mg q24h, >50 mL/min group): 35.0 µg·h/mL and 31.4 µg·h/mL and 34.6 µg·h/mL and 44.2 µg·h/mL and 35.4 µg·h/mL and 34.1 µg·h/mL and 54.2 µg·h/mL and 54.0 µg·h/mL | Expected Compound I free drug 24 h AUC ([1]; 1 g q8h, 10-19 ml/min group): 1515.2 µg·h/mL and 1281.9 µg·h/mL and 1480.9 µg·h/mL and 2372.2 µg·h/mL and 2490.8 µg·h/mL and 2158.8 µg·h/mL | Expected Compound I free drug 24 h AUC ([1]; 1 g q8h, 30-49 ml/min group): 357.8 µg·h/mL and 387.2 µg·h/mL and 345.5 µg·h/mL and 684.2 µg·h/mL and 753.3 µg·h/mL and 931.8 µg·h/mL | Expected Compound I free drug 24 h AUC ([1]; 1 g q8h, >50 mL/min group): 210.0 µg·h/mL and 188.2 µg·h/mL and 207.5 µg·h/mL and 265.2 µg·h/mL and 212.1 µg·h/mL and 204.3 µg·h/mL and 325.3 µg·h/mL and 324.0 µg·h/mL | Expected Compound I free drug 24 h AUC ([1]; 1 g q24h, 10-19 ml/min group): 505.1 µg·h/mL and 427.3 µg·h/mL and 493.6 µg·h/mL and 790.7 µg·h/mL and 830.3 µg·h/mL and 719.6 µg·h/mL | Expected Compound I free drug 24 h AUC ([1]; 1 g q24h, 30-49 ml/min group): 119.3 µg·h/mL and 129.1 µg·h/mL and 115.2 µg·h/mL and 228.1 µg·h/mL and 251.1 µg·h/mL and 310.6 µg·h/mL | Expected Compound I free drug 24 h AUC ([1]; 1 g q24h, >50 mL/min group): 70.0 µg·h/mL and 62.7 µg·h/mL and 69.2 µg·h/mL and 88.4 µg·h/mL and 70.7 µg·h/mL and 68.1 µg·h/mL and 108.4 µg·h/mL and 108.0 µg·h/mL | Expected Compound I free drug 24 h AUC ([1]; 2 g q8h, 10-19 ml/min group): 3030.3 µg·h/mL and 2563.8 µg·h/mL and 2961.8 µg·h/mL and 4744.3 µg·h/mL and 4981.6 µg·h/mL and 4317.6 µg·h/mL | Expected Compound I free drug 24 h AUC ([1]; 2 g q8h, 30-49 ml/min group): 715.7 µg·h/mL and 774.5 µg·h/mL and 690.9 µg·h/mL and 1368.4 µg·h/mL and 1506.5 µg·h/mL and 1863.5 µg·h/mL | Expected Compound I free drug 24 h AUC ([1]; 2 g q8h, >50 mL/min group): 420.0 µg·h/mL and 376.3 µg·h/mL and 415.0 µg·h/mL and 530.5 µg·h/mL and 424.2 µg·h/mL and 408.7 µg·h/mL and 650.6 µg·h/mL and 648.1 µg·h/mL

— patent US20190105337A1, “METHODS OF TREATING BACTERIAL INFECTIONS” (priority 2015, published 2019)
